Like-named read-outs stand apart in the source and are kept apart here.
Tests used:
human TRPA1 [1] = target: T1, human TRPA1 (Homo sapiens, UniProt O75762); assay: Pre-Incubation Test Method, TRPA1 (FLIPR intracellular calcium, AITC activator); type: cell-based
T1 construct: expressed in transfected cells; host or cells: HEK-293
Description: (§1) The Pre-Incubation Test and Direct Addition Test Methods, as defined herein, can be conducted on either TRPV1 or TRPA1 receptors.
(§2) Pre-Incubation Test Method: First, the intracellular calcium ion (Ca^+2) levels in TRPV1 and TRPA1 receptors is measured. […] Cells are detached with addition of 10 ml of PBS (phosphate buffered saline) by hand shaking gently. Cells are transferred to a 50 ml tube and centrifuged at 850 rpm for 3 minutes to remove PBS. After centrifugation, a pellet of cells is formed in the bottom of the tube separating them from the supernatant solution. […] Fluo-4 is a fluorescent dye used for quantifying cellular Ca^2+ concentrations in the 100 nM to 1 microM range. At the end of the 30 minutes, 45 ml of assay buffer [1× HBSS (Hank's Balanced Salt Solution), 20 mM HEPES (4-(2-Hydroxyethyl)-1-piperazineethanesulfonic acid)] is added to wash cells and the resulting combination is then centrifuged at 850 rpm for 3 minutes to remove excess buffer and Fluo-4 AM calcium indicator.
(§3) The pellet cells are re-suspended in 10 ml assay buffer and 90 μl aliquots (˜50,000 cells) per well delivered to a 96-well assay plate containing 10 μl of test compounds (1 mM in assay buffer, final concentration 100 μM) or buffer control and incubated at room temperature for 30 minutes. […] The FLIPR assay is an accepted method for detecting changes in intracellular calcium concentration. Then 20 μl of the activators [1.8 μM Capsaicin (final concentration 300 nM) for TRPV1 or 300 μM AITC (final concentration 50 μM) for TRPA1 is added by FLIPR automatically and fluorescence recorded immediately.

human TRPA1 [2] = target: T1, human TRPA1; assay: Direct Addition Test Method, TRPA1 (FLIPR intracellular calcium); type: cell-based
Description: as §1, §2, §3
(§4) Direct Addition Test Method (for determining the direct effect of test compounds on TRPV1 and TRPA1): All procedures are same as the pre-incubation test except 10 μl assay buffer instead of 10 μl test compounds in the 96-well assay plates. The fluorescence is measured immediately after addition of 20 μl of 600 μM each compound (final concentration 100 μM). The 20 μl of activator (capsaicin or AITC) is as the positive control. The percentage of up-regulation or down-regulation is calculated based on the fluorescence measurement.

human TRPV1 [3] = target: T2, human TRPV1 (Homo sapiens, UniProt Q8NER1); assay: Pre-Incubation Test Method, TRPV1 (FLIPR intracellular calcium, capsaicin activator); type: cell-based
T2 construct: expressed in transfected cells; host or cells: HEK-293
Description: as §1, §2, §3

human TRPV1 [4] = target: T2, human TRPV1; assay: Direct Addition Test Method, TRPV1 (FLIPR intracellular calcium); type: cell-based
Description: as §1, §2, §3, §4

[5] = In use irritation Test 2 (single variable shave test with panelists); type: in vivo; conditions: control 5.60
Description: • In use irritation Test 2: Five samples are produced with the same blank testing formulation as in Test 1, above. Samples are tested with panelists in a single variable shave test with only the addition and level of sensate being varied.

[6] = In use irritation Test 1 (single variable shave test with panelists); type: in vivo; conditions: control 6.3
Description: 10. In Use Irritation Data: • In use irritation Test 1: Five samples are produced with the following formulation. Samples are tested with panelists in a single variable shave test with only the addition and level of sensate being varied. Respondents provide average irritation ratings summarized below. • Testing formula: […]

[7] = TRPA1, HEK-293 cells, test compound final concentration 100 μM, 30 minutes pre-incubation, activator AITC 50 μM
[8] = TRPA1, HEK-293 cells, compound final concentration 100 μM, no pre-incubation, AITC as positive control
[9] = TRPV1, HEK-293 cells, test compound final concentration 100 μM, 30 minutes pre-incubation, activator Capsaicin 300 nM
[10] = TRPV1, HEK-293 cells, compound final concentration 100 μM, no pre-incubation, capsaicin as positive control
[11] = sensate added to control formula at 0.2%

T1 sequence (O75762 whole entry): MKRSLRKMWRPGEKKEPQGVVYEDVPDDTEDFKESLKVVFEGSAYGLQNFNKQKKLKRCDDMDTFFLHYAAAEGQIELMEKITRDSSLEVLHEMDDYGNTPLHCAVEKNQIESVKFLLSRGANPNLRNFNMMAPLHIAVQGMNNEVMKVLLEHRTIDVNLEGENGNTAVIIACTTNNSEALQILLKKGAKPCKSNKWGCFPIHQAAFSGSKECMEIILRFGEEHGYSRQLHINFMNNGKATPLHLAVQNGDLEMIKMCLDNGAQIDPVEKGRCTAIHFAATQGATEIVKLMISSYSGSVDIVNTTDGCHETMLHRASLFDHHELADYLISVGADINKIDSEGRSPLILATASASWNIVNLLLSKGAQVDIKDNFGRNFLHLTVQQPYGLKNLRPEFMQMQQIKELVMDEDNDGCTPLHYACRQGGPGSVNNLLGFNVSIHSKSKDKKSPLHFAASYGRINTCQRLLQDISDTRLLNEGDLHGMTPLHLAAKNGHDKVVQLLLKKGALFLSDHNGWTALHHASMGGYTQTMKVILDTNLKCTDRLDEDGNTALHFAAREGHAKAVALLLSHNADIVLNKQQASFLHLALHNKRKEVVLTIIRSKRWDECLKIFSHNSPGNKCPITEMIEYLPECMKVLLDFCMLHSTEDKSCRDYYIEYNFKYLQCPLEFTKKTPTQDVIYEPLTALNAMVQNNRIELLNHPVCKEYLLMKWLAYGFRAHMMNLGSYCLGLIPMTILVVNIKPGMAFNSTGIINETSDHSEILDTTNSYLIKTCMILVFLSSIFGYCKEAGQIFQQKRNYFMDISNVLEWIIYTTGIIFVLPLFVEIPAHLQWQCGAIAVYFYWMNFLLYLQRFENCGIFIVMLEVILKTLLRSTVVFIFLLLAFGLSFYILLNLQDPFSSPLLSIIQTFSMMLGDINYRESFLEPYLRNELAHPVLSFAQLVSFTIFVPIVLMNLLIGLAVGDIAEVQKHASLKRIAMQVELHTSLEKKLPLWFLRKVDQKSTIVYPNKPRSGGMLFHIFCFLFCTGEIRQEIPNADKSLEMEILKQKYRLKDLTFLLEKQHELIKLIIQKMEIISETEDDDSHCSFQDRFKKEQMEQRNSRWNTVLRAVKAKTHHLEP
T2 sequence (Q8NER1 whole entry): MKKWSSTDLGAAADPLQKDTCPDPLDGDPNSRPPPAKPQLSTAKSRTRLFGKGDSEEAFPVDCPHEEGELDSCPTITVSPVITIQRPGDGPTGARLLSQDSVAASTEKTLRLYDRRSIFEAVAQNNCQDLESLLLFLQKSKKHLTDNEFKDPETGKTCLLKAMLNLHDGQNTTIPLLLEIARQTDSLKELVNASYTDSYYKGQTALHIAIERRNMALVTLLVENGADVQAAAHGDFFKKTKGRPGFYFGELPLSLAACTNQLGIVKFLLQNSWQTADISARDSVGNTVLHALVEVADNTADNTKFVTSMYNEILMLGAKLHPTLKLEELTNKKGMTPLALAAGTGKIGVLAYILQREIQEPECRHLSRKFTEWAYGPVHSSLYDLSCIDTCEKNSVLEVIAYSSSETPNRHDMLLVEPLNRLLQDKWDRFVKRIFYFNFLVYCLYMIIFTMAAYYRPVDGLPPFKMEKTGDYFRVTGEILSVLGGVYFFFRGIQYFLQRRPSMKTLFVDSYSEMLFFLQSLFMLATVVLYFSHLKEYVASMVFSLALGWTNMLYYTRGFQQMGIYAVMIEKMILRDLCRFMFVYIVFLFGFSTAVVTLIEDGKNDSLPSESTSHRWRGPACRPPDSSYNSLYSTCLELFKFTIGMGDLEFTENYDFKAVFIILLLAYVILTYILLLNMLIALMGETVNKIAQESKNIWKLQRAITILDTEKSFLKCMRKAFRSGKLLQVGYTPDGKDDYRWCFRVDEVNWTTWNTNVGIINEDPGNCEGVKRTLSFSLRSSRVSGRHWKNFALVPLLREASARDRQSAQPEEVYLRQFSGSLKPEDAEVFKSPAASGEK

| SMILES | Pre-incubation % Regulation (human TRPA1 [1]; [7]) | Direct Addition % Regulation (human TRPA1 [2]; [8]) | Pre-incubation % Regulation (human TRPV1 [3]; [9]) | Direct Addition % Regulation (human TRPV1 [4]; [10]) | other results |
| --- | --- | --- | --- | --- | --- |
| C=C1CCC(C)C(C)(C)C1/C=C/C(C)=O (stereo not shown) | 23.55% | 4.96% | 22.16% | 5.24% | Avg Irritation Score ([5]; sensate at 0.1% in control formulation): 5.40 |
| Cc1cc(O)ccc1Cl [4-chloro-3-methylphenol] | −0.43% | 319.54% | 47.49% | 292.92% | Avg Irritation Score [6, 11]: 4.3 |
| CC(=O)CCC=C(C)C [6-Methyl-5-hepten-2-one, 6-methyl-5-hepten-2-one] | – | – | – | – | Avg Irritation Score ([6]; sensate added to control formula at 0.15%): 6.0 |
| OCc1ccccc1 [Benzyl Alcohol, benzyl alcohol] | 14.61% | 21.39% | 51.18% | −2.09% | Avg Irritation Score ([6]; sensate added to control formula at 1%): 4.8 |
| Cc1cc(O)cc(C)c1Cl [Chloroxylenol, chloroxylenol] | −0.08% | 381.06% | 37.52% | 326.69% | Avg Irritation Score [6, 11]: 5.2 |
| CC(C)C(=O)OCCOc1ccccc1 [Phenoxyethyl Isobutyrate, phenoxyethyl isobutyrate] | 36.8% | −7.84% | 41.34% | −6.84% | Avg Irritation Score ([5]; sensate at 0.13% in control formulation): 4.45 |
| CC(=O)[O][Zn][O]C(C)=O [Zinc Acetate, zinc acetate] | – | – | – | – | Pre-incubation % Regulation (human TRPA1 [1]): 21.67%; Direct Addition % Regulation (human TRPA1 [2]): −0.66%; Pre-incubation % Regulation (human TRPV1 [3]): 35.2%; Direct Addition % Regulation (human TRPV1 [4]): 0.88%; Avg Irritation Score ([5]; sensate at 0.03% in control formulation): 4.55 |
